Key:
[1] = system: L929; test: Percentage inhibition of plaque formation, after 72 hr of incubation in virus plaque assay, prepared from monolayer cultures of mouse L 929 cells; type: functional; set-up: concentration or dose not given beside the values
[2] = system: L cells; test: Percentage control of incorporation of [3H]thymidine into DNA of uninfected L-cell cultures after 36h exposure; type: functional, Mus musculus, L929; set-up: concentration or dose not given beside the values
[3] = system: L cells; test: Percentage control of incorporation of [3H]thymidine into DNA of uninfected L-cell cultures after 72 hr exposure; type: functional, Mus musculus, L929; set-up: concentration or dose not given beside the values
[4] = system: Adenosylhomocysteinase (Bos taurus); test: Compound is evaluated for the inhibition of bovine liver S-adenosyl-homocysteine hydrolase at a concentration of 2.0 mM

Structure (SMILES)	Inhibition [1] [%]	Control [2] [%]	Control [3] [%]	inhibition [4] [%]
Nc1ncnc2c1ncn2[C@@H]1C[C@H](CO)[C@@H](O)[C@H]1O [ARISTEROMYCIN]	65	81	134	
CNc1ncnc2c1ncn2C(CO)CC(CO)CO (configuration not stated)	7			82
Nc1ncnc2c1ncn2C(C=O)CC(C=O)CO (configuration not stated)	75	67	130	
CNc1ncnc2c1ncn2C(C=O)CC(C=O)CO (configuration not stated)	60	63	106	
Nc1ncnc2c1nnn2C1CC(CO)C(O)C1O (configuration not stated)	7	89	146	
Nc1nccc2c1ncn2[C@@H]1C[C@H](CO)[C@@H](O)[C@H]1O [3-DEAZAARISTEROMYCIN A]	95	86	246	
Nc1nccc2c1ncn2C(C=O)CC(C=O)CO (configuration not stated)	91	107	133	
CNc1ncnc2c1ncn2C1CC(CO)C(O)C1O (configuration not stated)	19	95	137	
Nc1nccc2c1ncn2C(CO)CC(CO)CO (configuration not stated)	9			94
Nc1ncnc2c1nnn2C(C=O)CC(C=O)CO (configuration not stated)	63	91	81	
Nc1ncnc2c1ncn2C(CO)CC(CO)CO (configuration not stated)	13			98
Nc1ncnc2c1nnn2C(CO)CC(CO)CO (configuration not stated)	11			94

Reference: ChEMBL document CHEMBL1122975, “Potential inhibitors of S-adenosylmethionine-dependent methyltransferases. 9. 2',3'-Dialdehyde derivatives of carbocyclic purine nucleosides as inhibitors of S-adenosylhomocysteine hydrolase” (J Med Chem, 1985)
